Source: the supplement of paper PMC10307832

Assays:
Test in all cases: relative viability (nuclei count vs DMSO), 5 days (fraction); higher = more cells survive
Temozolomide + Olaparib = compound: Cn1nnc2c(C(N)=O)ncn2c1=O [Temozolomide] + O=C(c1cc(Cc2n[nH]c(=O)c3ccccc23)ccc1F)N1CCN(C(=O)C2CC2)CC1 [Olaparib] (partner 8 µM)
Outline: (§1)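 Lung cancer cell lines were seeded in 1536-well plates and dosed by pin tool the next day, with either a single drug or a fixed anchor-drug dose combined with five library-drug doses (not always all listed) spaced in √10 steps. Five days later, one step fixed the cells and stained their nuclei (final 0.05% Triton X-100, 1% formaldehyde, 1 ug/ml Hoechst), and nuclei were counted on 4× images. Relative viability is the nuclei count in treated wells divided by the count in vehicle wells, and each value is the median of duplicate plates.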

[1] = compound: Cn1nnc2c(C(N)=O)ncn2c1=O [Temozolomide] + C[C@@H](Oc1cc(-c2cnn(C3CCNCC3)c2)cnc1N)c1c(Cl)ccc(F)c1Cl [Crizotinib] (partner 1 µM)
Outline: as §1

Temozolomide + Foretinib = compound: Cn1nnc2c(C(N)=O)ncn2c1=O [Temozolomide] + COc1cc2c(Oc3ccc(NC(=O)C4(C(=O)Nc5ccc(F)cc5)CC4)cc3F)ccnc2cc1OCCCN1CCOCC1 [Foretinib] (partner 0.25 µM)
Outline: as §1

AZD5582 + AZD7762 = compound: C[C@@H](C(=O)N[C@@H](C1CCCCC1)C(=O)N2CCC[C@H]2C(=O)N[C@@H]3[C@@H](CC4=CC=CC=C34)OCC#CC#CCO[C@@H]5CC6=CC=CC=C6[C@@H]5NC(=O)[C@@H]7CCCN7C(=O)[C@H](C8CCCCC8)NC(=O)[C@H](C)NC)NC [AZD5582] + NC(=O)Nc1cc(-c2cccc(F)c2)sc1C(=O)N[C@H]1CCCNC1 [AZD7762] (partner 0.2 µM); details: first compound 0.05 µM
Outline: as §1

AZD5582 + Olaparib = compound: C[C@@H](C(=O)N[C@@H](C1CCCCC1)C(=O)N2CCC[C@H]2C(=O)N[C@@H]3[C@@H](CC4=CC=CC=C34)OCC#CC#CCO[C@@H]5CC6=CC=CC=C6[C@@H]5NC(=O)[C@@H]7CCCN7C(=O)[C@H](C8CCCCC8)NC(=O)[C@H](C)NC)NC [AZD5582] + O=C(c1cc(Cc2n[nH]c(=O)c3ccccc23)ccc1F)N1CCN(C(=O)C2CC2)CC1 [Olaparib] (partner 8 µM)
Outline: as §1

Cell Line: NCI-H1703
- relative viability (Temozolomide + Olaparib; first compound 0.2 µM): 0.497
- relative viability (Temozolomide + Olaparib; first compound 0.6325 µM): 0.43
- relative viability (Temozolomide + Olaparib; first compound 2 µM): 0.469
- relative viability (Temozolomide + Olaparib; first compound 6.325 µM): 0.405
- relative viability (Temozolomide + Olaparib; first compound 20 µM): 0.448
- relative viability ([1]; first compound 0.2 µM): 0.746
- relative viability ([1]; first compound 0.6325 µM): 0.648
- relative viability ([1]; first compound 2 µM): 0.876
- relative viability ([1]; first compound 6.325 µM): 0.8
- relative viability ([1]; first compound 20 µM): 0.846
- relative viability (Temozolomide + Foretinib; first compound 0.2 µM): 0.297
- relative viability (Temozolomide + Foretinib; first compound 0.6325 µM): 0.35
- relative viability (Temozolomide + Foretinib; first compound 2 µM): 0.401
- relative viability (Temozolomide + Foretinib; first compound 6.325 µM): 0.281
- relative viability (Temozolomide + Foretinib; first compound 20 µM): 0.374
- relative viability (AZD5582 + AZD7762): 0.126
- relative viability (AZD5582 + Olaparib; first compound 0.005 µM): 0.413
- relative viability (AZD5582 + Olaparib; first compound 0.01581 µM): 0.487
- relative viability (AZD5582 + Olaparib; first compound 0.05 µM): 0.54
